# What was measured:
# Assay type in all cases: cell-based
# [1] = test system: human wild type p21 promoter; test: p21 promoter assay (luciferase) in MFLL-9 cells; conditions: 20 hours, concentration giving 1000% luminescence relative to negative control (100%)
# Procedure: As an HDAC-inhibiting activity in an […] system, the following measurement was carried out using the p21 promoter inducing activity as an index. MFLL-9 cells used in the experiment are cells stably retaining a fusion gene (Dr. B. Vogelstaein) from the human wild type p21 promoter and luciferase gene. They were cultured using phenol red-free DMEM supplemented with 10% FBS in a steam-saturated incubator at 37° C. in the presence of 5% carbon dioxide. These MFLL-9 cells were sowed onto a 96-well microplate at a cell density of 2×10^4 cells/well and, after 24 hours of cultivation in 99 μl, per well, of the medium mentioned above, each test compound solution was added, followed by 20 hours of incubation. […] In a negative control, the same procedure was carried out without adding any inhibitor to the reaction system.
# Using Luciferase Assay Reagent (Promega), the intensity of the luminescence due to the product of the enzymatic reaction involving luciferase expressed within cells was measured.
# [2] = test system: brain tumor cell line SF-539; test: Human cancer cell line panel, proliferation (sulforhodamine B); conditions: SF-539, 2 days of cultivation; read-out: 50% inhibitory concentration, proliferation
# From the text: (§1) The characteristics of the human cancer cell proliferation-inhibiting activity of the compounds of the present invention were examined by the “method of evaluating the mechanisms of action of compounds using a panel of human cancer cell lines” as proposed by Yamori et al. (cf. Gan to Kagaku Ryoho (Cancer and Chemotherapy) 29 Suppl. II (2002) and Cancer Chemother. Pharmacol. 52 Suppl. I, S74-79 (2003)).
# (§2) This system includes […] (7 lung cancer, 6 stomach cancer, 5 colon cancer, 5 ovarian cancer, 6 brain tumor, […], 2 kidney cancer and 2 prostate cancer cell lines as well as one melanoma line) and the method comprises measuring the in vitro drug susceptibilities of those cancer cell lines and expressing the differences in drug susceptibility among the respective cancer cell lines as a fingerprint. […] By utilizing this property, it is possible to estimate the mechanisms of action of a compound. The above method is also characterized in that an anticancer substance showing new and unique mechanisms of action different from those of the existing anticancer agents can be selected.
# (§3) Cancer cells of each cell line are sowed onto a 96-well plate, a sample solution is added on the next day and, after 2 days of cultivation, the cell proliferation is measured by colorimetry using sulforhodamine B. The deviations in effective concentration for the respective cancer cell lines from the mean effective drug concentration for the 39 cancer cell lines subjected to measurement are calculated and shown in the form a fingerprint.
# [3] = test system: colon cancer cell line HCT-116; test: as above; conditions: HCT-116, 2 days of cultivation; read-out: 50% inhibitory concentration, proliferation
# From the text: as §1, §2, §3
# [4] = test system: lung cancer cell line DMS114; test: as above; conditions: DMS114, 2 days of cultivation; read-out: 50% inhibitory concentration, proliferation
# From the text: as §1, §2, §3
# [5] = test system: lung cancer cell line A549; test: as above; conditions: A549, 2 days of cultivation; read-out: 50% inhibitory concentration, proliferation
# From the text: as §1, §2, §3
# [6] = test system: ovarian cancer cell line OVCAR-8; test: as above; conditions: OVCAR-8, 2 days of cultivation; read-out: 50% inhibitory concentration, proliferation
# From the text: as §1, §2, §3
# [7] = test system: lung cancer cell line NCI-H522; test: as above; conditions: NCI-H522, 2 days of cultivation; read-out: 50% inhibitory concentration, proliferation
# From the text: as §1, §2, §3
# [8] = test system: brain tumor cell line SNB-75; test: as above; conditions: SNB-75, 2 days of cultivation; read-out: 50% inhibitory concentration, proliferation
# From the text: as §1, §2, §3
# [9] = test system: kidney cancer cell line RXF-631L; test: as above; conditions: 2 days of cultivation, read-out: 50% inhibitory concentration, proliferation
# From the text: as §1, §2, §3
# [10] = test system: stomach cancer cell line MKN1; test: as above; conditions: MKN1, 2 days of cultivation; read-out: 50% inhibitory concentration, proliferation
# From the text: as §1, §2, §3
# [11] = test system: lung cancer cell line NCI-H23; test: as above; conditions: NCI-H23, 2 days of cultivation; read-out: 50% inhibitory concentration, proliferation
# From the text: as §1, §2, §3
# [12] = test system: lung cancer cell line NCI-H460; test: as above; conditions: NCI-H460, 2 days of cultivation; read-out: 50% inhibitory concentration, proliferation
# From the text: as §1, §2, §3
# [13] = test system: breast cancer cell line BSY-1; test: as above; conditions: BSY-1, 2 days of cultivation; read-out: 50% inhibitory concentration, proliferation
# From the text: as §1, §2, §3
# [14] = test system: prostate cancer cell line DU-145; test: as above; conditions: DU-145, 2 days of cultivation; read-out: 50% inhibitory concentration, proliferation
# From the text: as §1, §2, §3
# [15] = test system: lung cancer cell line NCI-H226; test: as above; conditions: NCI-H226, 2 days of cultivation; read-out: 50% inhibitory concentration, proliferation
# From the text: as §1, §2, §3
# [16] = test system: melanoma cell line LOX-IMVI; test: as above; conditions: 2 days of cultivation, read-out: 50% inhibitory concentration, proliferation
# From the text: as §1, §2, §3
# [17] = test system: ovarian cancer cell line OVCAR-5; test: as above; conditions: OVCAR-5, 2 days of cultivation; read-out: 50% inhibitory concentration, proliferation
# From the text: as §1, §2, §3
# [18] = test system: colon cancer cell line HCC2998; test: as above; conditions: HCC2998, 2 days of cultivation; read-out: 50% inhibitory concentration, proliferation
# From the text: as §1, §2, §3
# [19] = test system: colon cancer cell line HT-29; test: as above; conditions: HT-29, 2 days of cultivation; read-out: 50% inhibitory concentration, proliferation
# From the text: as §1, §2, §3
Structure (SMILES),p21 promoter activity EC1000 [1],IC50 [2],IC50 [3],IC50 [4],IC50 [5],IC50 [6],IC50 [7],IC50 [8],IC50 [9],IC50 [10],IC50 [11],IC50 [12],IC50 [13],IC50 [14],IC50 [15],IC50 [16],IC50 [17],IC50 [18],IC50 [19]
"CC1(C)NC(=O)[C@H](CCCCCSCc2ccncc2)NC(=O)[C@H]2CCCN2C(=O)[C@H](Cc2ccccc2)NC1=O [Ky-26, cyclo(-L-Am7(4-pyridylmethyl)-Aib-L-Phe-D-Pro-)]",0.010 µM,≤ 100 nM,≤ 100 nM,≤ 100 nM,≤ 100 nM,≤ 100 nM,≤ 10 nM,≤ 100 nM,≤ 100 nM,≤ 100 nM,≤ 100 nM,≤ 100 nM,≤ 100 nM,≤ 100 nM,≤ 100 nM,≤ 100 nM,≤ 100 nM,≤ 100 nM,≤ 100 nM
"CC(=O)CSCCCCC[C@@H]1NC(=O)[C@H]2CCCN2C(=O)[C@H](Cc2ccccc2)NC(=O)C(C)(C)NC1=O [Ky-72, cyclo(-L-Am7(acetonyl)-Aib-L-Phe-D-Pro-)]",0.031 µM,≤ 100 nM,≤ 10 nM,≤ 100 nM,≤ 100 nM,≤ 100 nM,≤ 10 nM,≤ 100 nM,≤ 100 nM,≤ 100 nM,≤ 100 nM,≤ 100 nM,≤ 100 nM,≤ 100 nM,≤ 100 nM,≤ 100 nM,≤ 100 nM,≤ 100 nM,≤ 100 nM
